Laboratory results as given in patent US12310364B2, “Safened compositions comprising pyridine carboxylate herbicides and cloquintocet” (Corteva Agriscience LLC, priority 2018, dated 2025).
“And” between values parts separate entries of the source, which are not always exact repeats. Equal values may be shown once.

Key:
Type in all cases: in vivo
[1] = test system: Polygonum convulvus (wild buckwheat), POLCO; assay: Greenhouse postemergence trial, visual injury on wild buckwheat
Text: (§1) Greenhouse Trial Methodology—Evaluation of Postemergence Herbicidal Safening in Crops
(§2) Seeds of the desired test plant species were planted in a 90:10% v/v (volume/volume) mixture of PRO-MIX® BX (Premier Tech Horticulture, Quakertown, PA, USA) and PROFILE® GREENS GRADE™ (Profile Products LLC, Buffalo Grove, IL, USA) planting mixture, which typically has a pH of 5.2 to 6.2 and an organic matter content of at least 50 percent, in plastic pots with a surface area of 103.2 square centimeters (cm^2). When required to ensure good germination and healthy plants, a fungicide treatment and/or other chemical or physical treatment was applied. The plants were grown for 7-36 days (d) in a greenhouse with an approximate 14-hour (h) photoperiod which was maintained at about 23° C. during the day and 22° C. during the night. Nutrients and water were added on a regular basis and supplemental lighting was provided with overhead metal halide 1000-Watt lamps as necessary. The plants were employed for testing when they reached the second or third true leaf stage.
(§3) Emulsifiable concentrates of each of each pyridine carboxylate herbicide (Compound A or Compound B) were prepared at 100 grams acid equivalent per liter (g ae/L). An aliquot of each emulsifiable concentrate was placed in a 25 mL glass vial and diluted with an aqueous mixture of 1.25% (v/v) ACTIROB® B esterified rapeseed oil (Bayer Crop Science, Research Triangle Park, NC, USA) or MSO® Concentrate with LECI-TECH® methylated soybean oil (Loveland Products, Loveland, CO, USA) to obtain concentrated stock solutions at the highest application rate for each herbicide, based upon a 12 milliliter (mL) application volume at a rate of 187 liters per hectare (L/ha). The concentrated stock solutions were further diluted with an aqueous mixture of 1.25% v/v ACTIROB® B or MSO® Concentrate with LECI-TECH® to obtain stock solutions at reduced application rates for each herbicide. Spray solutions of the herbicide combinations (Compound A or Compound B plus safener) were prepared by adding weighed amounts or aliquots of the safener to the stock solutions of Compound A or Compound B to form 12-mL spray solutions in two-way combinations.
(§4) The spray solutions were applied to the plant material with an overhead Mandel track sprayer equipped with 8002E nozzles calibrated to deliver 187 L/ha over an application area of 0.503 square meters (m^2) at a spray height of 18 inches (43 centimeters (cm)) above the average plant canopy. Control plants were sprayed in the same manner with the solvent blank. All herbicide (component a) application rates are given as “g ae/ha” and all safener (component b) application rates are given as “g ai/ha.”
(§5) The treated plants and control plants were placed in a greenhouse as described above and watered by sub-irrigation to prevent wash-off of the test compounds. After 20-22 d, the condition of the test plants as compared with that of the control plants was determined visually and scored on a scale of 0 to 100 percent where 0 corresponds to no injury and 100 corresponds to complete kill.

[2] = test system: Johnson grass (SORHA, Sorghum halepense); assay: Greenhouse postemergence trial, visual injury on Johnson grass; details: Table 19
Text: as §1, §2
as §3, with “combinations. […]” for “combinations.”
as §5

[3] = test system: Salsola kali (Russian thistle), SASKR; assay: Greenhouse postemergence trial, visual injury on Russian thistle
Method: (§6) Greenhouse Trial Methodology-Evaluation of Postemergence Herbicidal […] in Crops […] When required to ensure good germination and healthy plants, a fungicide treatment and/or other chemical or physical treatment was applied. The plants were grown for 7-36 days (d) in a greenhouse with an approximate 14-hour (h) photoperiod which was maintained at about 23° C. during the day and 22° C. during the night. Nutrients and water were added on a regular basis and supplemental lighting was provided with overhead metal halide 1000-Watt lamps as necessary. The plants were employed for testing when they reached the second or third true leaf stage. Emulsifiable concentrates of each of each pyridine carboxylate herbicide (Compound A or Compound B) were prepared at 100 grams acid equivalent per liter (g ae/L). […] The concentrated stock solutions were further diluted with an aqueous mixture of 1.25% […] or MSO® Concentrate with LECI-TECH® to obtain stock solutions at reduced application rates for each herbicide. Spray solutions of the herbicide combinations (Compound A or Compound B plus safener) were prepared by adding weighed amounts or aliquots of the safener to the stock solutions of Compound A or Compound B to form 12-mL spray solutions in two-way combinations. […] Control plants were sprayed in the same manner with the solvent blank. All herbicide (component a) application rates are given as “g ae/ha” and all safener (component b) application rates are given as “g ai/ha.” The treated plants and control plants were placed in a greenhouse as described above and watered by sub-irrigation to prevent wash-off of the test compounds.

[4] = test system: Canada thistle (CIRAR, Cirsium arvense); assay: Greenhouse postemergence trial, visual injury on Canada thistle; details: Table 19
Text: as §1, §2
as §3, with “combinations. […]” for “combinations.”
as §5

[5] = test system: Hordeum vulgare (spring barley), HORVS; assay: Greenhouse postemergence safening trial, visual injury on spring barley
Method: as §6

[6] = test system: common lambsquarters (CHEAL, Chenopodium album L.); assay: Greenhouse postemergence trial, visual injury on common lambsquarters; details: Table 19
Text: as §1, §2
as §3, with “combinations. […]” for “combinations.”
as §5

[7] = test system: Canada horseweed (ERICA, Erigeron canadensis); assay: Greenhouse postemergence trial, visual injury on Canada horseweed; details: Table 19
Text: as §1, §2
as §3, with “combinations. […]” for “combinations.”
as §5

[8] = test system: Anthemis arvensis (field chamomile), ANTAR; assay: Greenhouse postemergence trial, visual injury on field chamomile
Text: as §1, §2, §3, §4, §5

[9] = test system: large crabgrass (DIGSA, Digitaria sanguinalis); assay: Greenhouse postemergence trial, visual injury on large crabgrass; details: Table 19
Text: as §1, §2
as §3, with “combinations. […]” for “combinations.”
as §5

[10] = test system: Triticum aestivum (winter wheat), TRZAW; assay: Greenhouse postemergence safening trial, visual injury on winter wheat
Method: as §6

[11] = Compound A 20 g/ha alone, Table 19
[12] = Compound A 20 g/ha alone, Table 15
[13] = Compound A 40 g/ha alone, Table 14
[14] = Compound A 40 g/ha alone, Table 16
[15] = CQC-mexyl 20 g/ha alone, Table 19
[16] = CQC-mexyl 40 g/ha alone, Table 19
[17] = CQC-mexyl 80 g/ha alone, Table 19
[18] = CQC-mexyl 5 g/ha alone, Table 15
[19] = CQC-mexyl 10 g/ha alone, Table 15
[20] = CQC-mexyl 10 g/ha alone, Table 16
[21] = CQC-mexyl 20 g/ha alone, Table 15
[22] = CQC-mexyl 20 g/ha alone, Table 16
[23] = CQC-mexyl 40 g/ha alone, Table 14
[24] = CQC-mexyl 40 g/ha alone, Table 15
[25] = CQC-mexyl 40 g/ha alone, Table 16
[26] = CQC-mexyl 80 g/ha alone, Table 16

N#CCOC(=O)c1nc(-c2ccc3cc[nH]c3c2F)c(F)c(N)c1Cl [Compound A, cyanomethyl 4-amino-3-chloro-5-fluoro-6-(7-fluoro-1H-indol-6-yl)pyridine-2-carboxylate]
88%: % visual injury, Ob ([6]; Compound A 20 g/ha alone)
100%: % visual injury, Ob [1, 11]
20%: % visual injury, Ob [5, 12] | % visual injury, Ob [5, 13] | % visual injury, Ob [10, 12] | % visual injury, Ob ([10]; herbicide alone 20 g/ha)
25%: % visual injury, Ob [10, 11]
40%: % visual injury, Ob [5, 14]
35%: % visual injury, Ob [10, 13] | % visual injury, Ob [10, 14]
0%: % visual injury, Ob ([2]; Compound A 20 g/ha alone) | % visual injury Δ ([10]; herbicide alone 40 g/ha)
95%: % visual injury, Ob ([4]; Compound A 20 g/ha alone) | % visual injury, Ob ([7]; Compound A 20 g/ha alone) | % visual injury, Ob [8, 12] | % visual injury, Ob ([8]; herbicide alone 20 g/ha)
35% and 25%: % visual injury, Ob ([10]; herbicide alone 40 g/ha)
30%: % visual injury, Ob ([9]; Compound A 20 g/ha alone)
60%: % visual injury, Ob ([3]; herbicide alone 20 g/ha)

CCCCCC(C)OC(=O)COc1ccc(Cl)c2cccnc12 (stereo not drawn) [CQC-mexyl, cloquintocet-mexyl]
0%: % visual injury, Ob [1, 15] | % visual injury, Ob [1, 16] | % visual injury, Ob [1, 17] | % visual injury, Ob ([1]; safener alone 5 g/ha) | % visual injury, Ob ([1]; safener alone 10 g/ha) | % visual injury, Ob ([1]; safener alone 20 g/ha) | % visual injury, Ob ([1]; safener alone 40 g/ha) | % visual injury, Ob ([2]; CQC-mexyl 20 g/ha alone) | % visual injury, Ob ([2]; CQC-mexyl 40 g/ha alone) | % visual injury, Ob ([2]; CQC-mexyl 80 g/ha alone) | % visual injury, Ob ([3]; safener alone 5 g/ha) | % visual injury, Ob ([3]; safener alone 10 g/ha) | % visual injury, Ob ([3]; safener alone 20 g/ha) | % visual injury, Ob ([3]; safener alone 40 g/ha) | % visual injury, Ob ([4]; CQC-mexyl 20 g/ha alone) | % visual injury, Ob ([4]; CQC-mexyl 40 g/ha alone) | % visual injury, Ob ([4]; CQC-mexyl 80 g/ha alone) | % visual injury, Ob [5, 18] | % visual injury, Ob [5, 19] | % visual injury, Ob [5, 20] | % visual injury, Ob [5, 21] | % visual injury, Ob [5, 22] | % visual injury, Ob [5, 23] | % visual injury, Ob [5, 24] | % visual injury, Ob [5, 25] | % visual injury, Ob [5, 26] | % visual injury, Ob ([5]; safener alone 5 g/ha) | % visual injury, Ob ([5]; safener alone 10 g/ha) | % visual injury, Ob ([5]; safener alone 20 g/ha) | % visual injury, Ob ([5]; safener alone 40 g/ha) | % visual injury, Ob ([6]; CQC-mexyl 20 g/ha alone) | % visual injury, Ob ([6]; CQC-mexyl 40 g/ha alone) | % visual injury, Ob ([6]; CQC-mexyl 80 g/ha alone) | % visual injury, Ob ([7]; CQC-mexyl 20 g/ha alone) | % visual injury, Ob ([7]; CQC-mexyl 40 g/ha alone) | % visual injury, Ob ([7]; CQC-mexyl 80 g/ha alone) | % visual injury, Ob [8, 18] | % visual injury, Ob [8, 19] | % visual injury, Ob [8, 21] | % visual injury, Ob [8, 24] | % visual injury, Ob ([9]; CQC-mexyl 20 g/ha alone) | % visual injury, Ob ([9]; CQC-mexyl 40 g/ha alone) | % visual injury, Ob ([9]; CQC-mexyl 80 g/ha alone) | % visual injury, Ob [10, 18] | % visual injury, Ob [10, 19] | % visual injury, Ob [10, 20] | % visual injury, Ob [10, 21] | % visual injury, Ob [10, 22] | % visual injury, Ob [10, 15] | % visual injury, Ob [10, 23] | % visual injury, Ob [10, 24] | % visual injury, Ob [10, 25] | % visual injury, Ob [10, 16] | % visual injury, Ob [10, 26] | % visual injury, Ob [10, 17] | % visual injury, Ob ([10]; safener alone 40 g/ha)
